Assay results as given in US10793561B2, “1,8-naphthyridinone compounds and uses thereof” (NUVATION BIO INC., priority 2017, dated 2020).
pIC50: −log10 of the molar value.

What was measured:
[1] = molecular target: T1, adenosine A2A receptor (Homo sapiens (Human), UniProt P29274); test: Radioligand binding competition assay, adenosine A2A receptor; settings: for A2A radioligand binding competition assay % residual binding @ 100 nM: 100 nM compound; for A2A radioligand binding competition assay % residual binding @ 300 nM: 300 nM compound; for A2A radioligand binding competition assay % residual binding @ 3000 nM: 3000 nM compound
T1 sequence (P29274 whole entry): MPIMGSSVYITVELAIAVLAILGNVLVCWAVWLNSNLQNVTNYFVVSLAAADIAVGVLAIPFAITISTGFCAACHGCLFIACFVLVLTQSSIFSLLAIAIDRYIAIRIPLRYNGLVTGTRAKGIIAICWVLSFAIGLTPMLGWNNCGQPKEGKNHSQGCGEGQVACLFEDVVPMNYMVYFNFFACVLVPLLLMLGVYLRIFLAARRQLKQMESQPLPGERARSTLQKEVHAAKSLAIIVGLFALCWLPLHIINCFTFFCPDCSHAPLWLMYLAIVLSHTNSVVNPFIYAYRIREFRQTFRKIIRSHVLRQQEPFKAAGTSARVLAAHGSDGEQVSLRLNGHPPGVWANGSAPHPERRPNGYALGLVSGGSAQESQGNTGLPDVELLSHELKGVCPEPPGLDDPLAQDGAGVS
Experimental: (§1) Binding of selected compounds to the adenosine A1, A2A, A2B, and A3 receptors was tested using a binding competition assay.
(§2) The general protocol for the radioligand binding competition assay was as follows. Competition binding was performed in duplicate in the wells of a 96 well plate (Master Block, Greiner, 786201) containing binding buffer (optimized for each receptor), membrane extracts (amount of protein/well optimized for each receptor), radiotracer (final concentration optimized for each receptor), and test compound. Nonspecific binding was determined by co-incubation with 200-fold excess of cold competitor. The samples were incubated in a final volume of 0.1 mL at 25° C. for 60 minutes and then filtered over filter plates. Filters were washed six times with 0.5 mL of ice-cold washing buffer (optimized for each receptor) and 50 μL of Microscint 20 (Packard) were added on each filter. The filter plates were sealed, incubated 15 min on an orbital shaker and scintillation counted with a TopCount for 30 sec/filter.
For the adenosine A2A receptor radioligand binding assay, the following modifications were made to the general protocol. GF/C filters (Perkin Elmer, 6005174), presoaked in 0.01% Brij for 2 h at room temperature were used. Filters were washed six times with 0.5 mL of ice-cold washing buffer (50 mM Tris pH 7.4) and 50 μL of Microscint 20 (Packard) was added in each well. The plates were then incubated for 15 min on an orbital shaker and then counted with a TopCount™ for 1 min/well.
Another radioligand binding assay was used to evaluate the binding affinity for the adenosine A2A receptor assay was performed in duplicate in the wells of a 384 plate. Assay buffer contained DPBS 500 mM, MgCl2 0.1 mM, and 1% DMSO. Membrane-bead suspension was prepared by mixing 25.98 μL of human adenosine A2A membrane preparation (Perkin Elmer, RBHA2AM400UA) at 33.4 pg/mL, 28 μL of ADA at 20 pg/mL, and 932 μL of SPA beads at 3.33 mg/mL) and incubated the mixture for 20 min at room temperature. Mixed 20 μL of radiotracer (^3H-SCH 58261) at 15 nM to each well containing test articles at various concentrations and centrifuge the plate at 1000 rpm for 1 minute. Added 30 μL of the membrane-bead suspension to each well. Sealed the plates and incubated for 1 hr at room temperature with vigorous mixing on a plate mixer. Plates were read on Microbeta^2 (Perkin Elmer, 2450-0010).
(§3) CHO-K1-A3 cell membranes, 1.5 μg/well; a binding buffer comprising HEPES 25 mM pH 7.4, MgCl2 5 mM, CaCl2 1 mM, 0.5% BSA; a wash buffer comprising HEPES 25 mM pH 7.4, MgCl2 5 mM, CaCl2 1 mM; a Unifilter GF/C—treated for 2 h with 0.5% BS; and 0.4 nM of ^125I-AB-MECA as the tracer. The results of the binding assay are shown in Table B1-1 and are shown as percent residual binding at a given concentration. Percent of residual binding means binding of a compound in the presence of competitor normalized to the amount of binding in the absence of competitor. […] For example, compound 1 strongly bound to A2A (30% residual binding at a concentration of 100 nM), A1 (−3% residual binding at 300 nM) and A2B, (−9% residual binding at 300 nM) but weakly bound to A3 (96% residual binding at 300 nM).

[2] = molecular target: adenosine A1 receptor (Homo sapiens (Human), UniProt P30542); test: Radioligand binding competition assay, adenosine A1 receptor (CHO-K1-A1 cell membranes); settings: 300 nM compound
Sequence of adenosine A1 receptor (P30542 whole entry): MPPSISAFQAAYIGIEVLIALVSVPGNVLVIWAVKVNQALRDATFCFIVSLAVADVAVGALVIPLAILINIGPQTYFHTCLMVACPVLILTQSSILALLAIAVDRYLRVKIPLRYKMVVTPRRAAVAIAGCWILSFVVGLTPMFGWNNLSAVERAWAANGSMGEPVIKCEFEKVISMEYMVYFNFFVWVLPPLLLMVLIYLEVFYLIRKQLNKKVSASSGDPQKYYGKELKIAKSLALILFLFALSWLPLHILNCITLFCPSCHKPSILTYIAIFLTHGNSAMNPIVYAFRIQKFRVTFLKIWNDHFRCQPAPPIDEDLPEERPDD
Experimental: as §1, §2
For the adenosine A1 radioligand binding competition assay, a similar procedure was used except that the following reagents were used: CHO-K1-A1 cell membranes; binding buffer comprising HEPES 25 mM pH 7.4, MgCl2 5 mM, CaCl2 1 mM, NaCl 100 mM, saponin 10 µg/mL; wash buffer comprising HEPES 25 mM pH 7.4, MgCl2 5 mM, CaCl2 1 mM, NaCl 100 mM; Unifilter GF/B—treated for 2 h with 0.5% PEI was the filter; and 1.6 nM of ^3H-DPCPX was the tracer.
as §3

[3] = molecular target: adenosine A2B receptor (Homo sapiens (Human), UniProt P29275); test: Radioligand binding competition assay, adenosine A2B receptor (HEK-293-A2b cell membranes); settings: 300 nM compound
Sequence of adenosine A2B receptor (P29275 whole entry): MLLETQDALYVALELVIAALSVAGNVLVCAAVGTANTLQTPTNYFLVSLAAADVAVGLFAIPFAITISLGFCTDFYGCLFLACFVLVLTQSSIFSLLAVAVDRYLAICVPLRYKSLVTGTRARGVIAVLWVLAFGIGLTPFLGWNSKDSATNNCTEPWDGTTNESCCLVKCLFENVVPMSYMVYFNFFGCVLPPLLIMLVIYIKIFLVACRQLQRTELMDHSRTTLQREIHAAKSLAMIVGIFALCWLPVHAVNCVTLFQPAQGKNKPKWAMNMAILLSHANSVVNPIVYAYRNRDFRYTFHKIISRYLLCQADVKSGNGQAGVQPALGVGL
Experimental: as §1, §2
Similarly, the following reagents were used for the adenosine A2B radioligand binding competition assay: HEK-293-A2b cell membranes, 20 μg/well, preincubated 30 min at RT with […] Adenosine Deaminase; a binding buffer comprising HEPES 10 mM pH7.4, EDTA 1 mM, 0.5% BSA; a wash buffer comprising HEPES 10 mM pH7.4, EDTA 1 mM; a Unifilter GF/C—treated for 2 h with 0.5% PEI; and 10 nM ^3H-DPCPX as the tracer.
as §3

[4] = molecular target: adenosine A3 receptor (Homo sapiens (Human), UniProt P0DMS8); test: Radioligand binding competition assay, adenosine A3 receptor (CHO-K1-A3 cell membranes); settings: 300 nM compound
Sequence of adenosine A3 receptor (P0DMS8 whole entry): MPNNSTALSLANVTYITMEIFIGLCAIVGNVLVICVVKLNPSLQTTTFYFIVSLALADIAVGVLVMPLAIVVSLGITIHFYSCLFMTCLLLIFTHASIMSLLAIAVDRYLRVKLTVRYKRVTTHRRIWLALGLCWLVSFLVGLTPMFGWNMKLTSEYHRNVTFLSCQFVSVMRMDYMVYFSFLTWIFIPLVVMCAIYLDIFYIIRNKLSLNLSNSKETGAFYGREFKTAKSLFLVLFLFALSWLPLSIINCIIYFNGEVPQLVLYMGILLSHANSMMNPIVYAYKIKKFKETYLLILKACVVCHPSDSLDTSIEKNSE
Experimental: as §1, §2
For the adenosine A3 radioligand binding competition assay, the following reagents were used:
as §3

[5] = molecular target: T1, adenosine A2A receptor; test: cAMP assay in HEK-293 cells expressing human recombinant adenosine A2A receptor; format: cell-based; settings: for pIC50: first cAMP table; for inhibition at 0.1 µM: HEK293, 100 nM compound, read-out: A2a cAMP % inh @ 100 nM
Experimental: The functional activity of compounds was tested using one of the two assays to detect the present of cAMP. Activation of G-protein coupled receptors (such as A2A) results in activation of adenylcyclase which converts ATP into cAMP which is used as a downstream signaling molecule. Therefore, molecules which act as GPCR (or specifically A2A receptor) antagonists cause a decrease in intracellular cAMP concentration.
Both assays used HEK-293 cells expressing human recombinant adenosine A2A receptor were grown prior to the test in media without antibiotic. Assay 1: The cells were detached by gentle flushing with PBS-EDTA (5 mM EDTA), recovered by centrifugation and suspended in assay buffer (KRH: 5 mM KCl, 1.25 mM MgSO4, 124 mM NaCl, 25 mM HEPES, 13.3 mM Glucose, 1.25 mM KH2PO4, 1.45 mM CaCl2, 0.5 g/L BSA, supplemented with Rolipram).
12 μL of cells were mixed with 6 μL of the test compound at increasing concentrations and then incubated for 10 min. Thereafter 6 μL of the reference agonist was added at a final concentration corresponding to the historical EC80. The plates were then incubated for 30 min at room temperature. After addition of the lysis buffer and 1 hour incubation, cAMP concentrations were estimated, according to the manufacturer specification, with the HTRF® kit.
Assay 2: 100 nL of test articles at 100× of final concentration were transferred to assay plate by Echo. Cells were washed twice with 5 mL of PBS […]. After aspirating the PBS and adding 1.5 mL versine, cells were incubated at 37° C. for 2-5 min. After centrifugation, 4 mL of medium was added and adjusted cell density to 5,000 cells/well with stimulation buffer. 10 μL of cells were aliquoted to the assay plate, centrifuged at 1000 rpm for 1 minute, and incubated for 60 minutes at room temperature. 5 μL 4× Eu-cAMP tracer solution and 5 μL 4× Ulight™-anti-cAMP solution were added to assay plate, followed by centrifugation and 60-minute incubation at room temperature. Plates were read on EnVision.

A2A radioligand binding competition assay % residual binding @ 100 nM [1] [%] | A2A radioligand binding competition assay % residual binding @ 300 nM [1] [%] | Radioligand binding competition assay % residual binding @ 300 nM (A1) [2] [%] | Radioligand binding competition assay % residual binding @ 300 nM (A2b) [3] [%] | Radioligand binding competition assay % residual binding @ 300 nM (A3) [4] [%] | pIC50 [5] | A2A radioligand binding competition assay % residual binding @ 1000 nM ([1]; 1000 nM compound) [%] | A2A radioligand binding competition assay % residual binding @ 3000 nM [1] | inhibition at 0.1 µM [5] [%] | pIC50 [1] | SMILES
77 | 60 | 0 | 0 | 83 | 7.66 |  |  |  |  | O=c1cc[nH]c2nc(-c3ccccc3)c(-c3ccc(O)c(Cl)c3)cc12 [1.2, 6-(3-chloro-4-hydroxy-phenyl)-7-phenyl-1H-1,8-naphthyridin-4-one]
52 | 33 | 7 | 0 | 84 |  | 21 | 18% | 81 |  | O=c1cc[nH]c2nc(-c3ccccc3)c(-c3ccc4[nH]cnc4c3)cc12 [Compound No. 1.7, 6-(1H-benzo[d]imidazol-5-yl)-7-phenyl-1,8-naphthyridin-4(1H)-one]
 |  | 13 | 0 | 87 |  |  | 5/ND/ND/ND % | 94 | 7.48 | O=c1cc[nH]c2nc(-c3ccco3)c(-c3ccc4ncccc4c3)cc12 [Compound No. 1.14, 7-(furan-2-yl)-6-(quinolin-6-yl)-1,8-naphthyridin-4(1H)-one]
 |  |  |  |  |  |  | 14/ND/ND/ND % | 85 |  | O=c1cc[nH]c2nc(-c3ccccc3)c(-c3cc(Cl)c4[nH]cnc4c3)cc12 [Compound No. 1.17, 6-(7-chloro-1H-benzo[d]imidazol-5-yl)-7-phenyl-1,8-naphthyridin-4(1H)-one]
83 | 54 | 1.6 | 17 | 95 | 7.21 |  |  |  |  | O=c1ccc2cc(-c3ccc(O)c(Cl)c3)c(-c3ccccc3)nc2[nH]1 [1.1, 6-(3-chloro-4-hydroxy-phenyl)-7-phenyl-1H-1,8-naphthyridin-2-one]
 |  |  |  |  |  |  | 50/ND/ND/ND % | 50 |  | Cc1cc(-c2cc3c(=O)cc[nH]c3nc2-c2ccccc2)cc(C)n1 [1.3, 6-(2,6-dimethylpyridin-4-yl)-7-phenyl-1,8-naphthyridin-4(1H)-one]
 |  |  |  |  |  |  | 51/ND/ND/ND % | 49 |  | O=c1cc[nH]c2nc(-c3ccccc3)c(-c3cnc4ncccc4c3)cc12 [Compound No. 1.11, 2-phenyl-[3,3′-bi(1,8-naphthyridin)]-5(8H)-one]
